Source: article PMC5451423, “Pharmacokinetic Evaluation of Empagliflozin in Healthy Egyptian Volunteers Using LC-MS/MS and Comparison with Other Ethnic Populations” (Scientific Reports, 2017)
Like-named read-outs stand apart in the source and are kept apart here.

Columns and labels:
[1] = parameters: method as in PMID 26101175; details: Chinese subjects, Group 2, n=9, 25 mg empagliflozin; cited from earlier work
[2] = white German subjects, cited from earlier work
[3] = parameters: method as in PMID 23859534; details: glucuronidation is the major metabolic pathway; cited from earlier work
[4] = Monitoring of blood glucose level of volunteers (hypoglycemic effect); type: in vivo, human; details: healthy Egyptian volunteers, 25 mg EG single oral dose, determined at 0 and 1.5 hrs
Text: The pharmacokinetic parameters of EG were studied in healthy human subjects according to the ethical regulations of World Medical Association Declaration of Helsinki (October 1996) and the International Conference of Harmonization Tripartite Guideline for Good Clinical Practice. Written informed consent was provided by each volunteer before enrollment. Approval of the study by the ethical committee was mandatory according to the Egyptian ministry of Health and The British University in Egypt research ethics guidelines. The experimental protocols were approved by the ethics committee of the Faculty of Pharmacy, The British University in Egypt. The clinical trial protocol was registered in a publically accessible primary register that participates in the WHO International Clinical Trial Registry Platform (ClinicalTrials.gov, 16/02/2017, ID: NCT03059056). […] Samples from 6 healthy, adult, male, Egyptian volunteers (age: 22–33 years, average weight: 77.8 kg, average body mass index (BMI): 29.2) were collected at 0, 0.5, 1, 1.5, 2, 3, 4, 8 and 12 hrs, transferred to heparinized centrifuge tubes and analyzed with the proposed method after single oral dose administration of one JARDIANCE tablet nominally containing 25 mg EG. […] Blood glucose level was determined for all volunteers at 0 and 1.5 hrs to monitor any hypoglycemic effect. […]

[5] = Single oral dose pharmacokinetic study of EG in healthy Egyptian volunteers (LC-MS/MS of plasma); type: in vivo, human; details: one JARDIANCE tablet 25 mg EG; for Cmax, Mean ± S.D. (% C.V.): n=6, fasting, single oral dose
Description: Each EG calibrator and quality control (QC) plasma sample (980 µL) was spiked with 20 µL containing the appropriate amount of EG in acetonitrile prepared with dilution of EG working solution. All samples including the volunteers’ plasma samples (1 mL plasma) were spiked with 100 µL of IS that contained 100 ng of DG followed by vortexing for 20 sec. Five milliliters of TBME were added, vortexed for 1 min, and centrifuged for 30 min at 6000 rpm. Four milliliters of the organic layer were vacuum evaporated until dryness at 60 °C. Three hundred microliters of acetonitrile were added to reconstitute the resulting residue and vortexed for 3 min. Ten microliters of the reconstituted solution were injected into the LC-MS/MS system.
The pharmacokinetic parameters of EG were studied in healthy human subjects according to the ethical regulations of World Medical Association Declaration of Helsinki (October 1996) and the International Conference of Harmonization Tripartite Guideline for Good Clinical Practice. Written informed consent was provided by each volunteer before enrollment. Approval of the study by the ethical committee was mandatory according to the Egyptian ministry of Health and The British University in Egypt research ethics guidelines. The experimental protocols were approved by the ethics committee of the Faculty of Pharmacy, The British University in Egypt. The clinical trial protocol was registered in a publically accessible primary register that participates in the WHO International Clinical Trial Registry Platform (ClinicalTrials.gov, 16/02/2017, ID: NCT03059056). Good health of the human subjects was confirmed with a complete medical history and physical examination. Fasting of all volunteers eliminated the possible interaction from high fat meals. The evaluation of safety of the study was based on monitoring of blood glucose level, vital signs, pulse rate, monitoring of adverse events, and physical examination. Samples from 6 healthy, adult, male, Egyptian volunteers (age: 22–33 years, average weight: 77.8 kg, average body mass index (BMI): 29.2) were collected at 0, 0.5, 1, 1.5, 2, 3, 4, 8 and 12 hrs, transferred to heparinized centrifuge tubes and analyzed with the proposed method after single oral dose administration of one JARDIANCE tablet nominally containing 25 mg EG. Blood samples (3 mL of each sample) were centrifuged at 3000 rpm for 5 min, 1 mL of the plasma was separated and spiked with 100 µL (equivalent to 100 ng) of IS working solution, and then the procedure discussed under (Sample preparation) was applied. The main pharmacokinetic parameters of the study, Cmax, Tmax, t1/2, elimination rate constant, AUC0-t and AUC0-inf, were estimated using validated Excel software. Blood glucose level was determined for all volunteers at 0 and 1.5 hrs to monitor any hypoglycemic effect. The study was conducted as per FDA guidelines.

[6] = parameters: method as in PMID 25199997; details: Japanese subjects, Group 1, n=8, 25 mg empagliflozin; cited from earlier work

OC[C@H]1O[C@@H](c2ccc(Cl)c(Cc3ccc(O[C@H]4CCOC4)cc3)c2)[C@H](O)[C@@H](O)[C@@H]1O [Empagliflozin]
AUC0-inf, Mean [1]: 7.45 µM·h
Cmax, Mean [1]: 1130 nM
AUC0-inf, Mean ([2]; Group 1, n=6, 25 mg EG): 3.83 µM·h
Cmax, Mean ([2]; Group 1, n=6, 25 mg EG): 505 nM
AUC0-inf, Mean ([2]; Group 2, n=18, 25 mg EG): 4.77 µM·h
Cmax, Mean ([2]; Group 2, n=18, 25 mg EG): 610 nM
AUC0-inf, Mean ([2]; Group 3, n=9, 25 mg EG): 4.31 µM·h
Cmax, Mean ([2]; Group 3, n=9, 25 mg EG): 606 nM
AUC0-inf, Mean ([2]; Group 4, n=9, 25 mg EG): 4.99 µM·h
Cmax, Mean ([2]; Group 4, n=9, 25 mg EG): 630 nM
metabolites detected in human plasma [3]: no major metabolites
blood glucose level of all volunteers [4]: in the normal range
k el ([5]; male, human, plasma, n=6, single oral dose, read-out: Elimination rate constant, Mean ± S.D. (% C.V.) (converted)): 2.78e-05 s⁻¹
half-life ([5]; male, human, plasma, n=6, single oral dose, read-out: t 1/2, Mean ± S.D. (% C.V.) (converted)): 6.1 ± 1.2 h
Cmax, Mean ± S.D. (% C.V.) ([5]; plasma): 576 ± 86 (14.93) nMol/L
Cmax, Mean ± S.D. (% C.V.) ([5]; plasma, listed as empagliflozin): 576 nmol/L
AUC0-inf, Mean ± S.D. (% C.V.) ([5]; n=6, single oral dose): 4103 ± 427 (10.41) nMol.h/L
AUC0−t (12), Mean ± S.D. (% C.V.) ([5]; n=6, single oral dose, 0-12 h): 2806 ± 234 (8.34) nMol.h/L
AUC0-inf, Mean ± S.D. (% C.V.) ([5]; n=6, single oral dose, listed as empagliflozin): 4103 nmol·h/L
AUC0-inf, Mean [6]: 7.56 µM·h
Cmax, Mean [6]: 1070 nM
